Laboratory results: patent US20220135580A1, “HYDROXYPH[…], METHODS AND USES THEREOF” (priority 2019, published 2022)
Entries after “also recorded” stand apart in the source; their conditions may differ.

Columns and labels:
[1] = system: differentiated 3T3-L1 spheroids; test: lipid content (Nile red) in differentiated 3T3-L1 spheroids; format: cell-based, murine; conditions: for lipid accumulation: 48 h exposure, spheroids after 7 d differentiation; for lipid content of the spheroids: 3T3L1 cells grown and differentiated as spheroids
Procedure: (§1) FIG. 2: Evaluation of lipid content (Nile red) and viability (calcein AM) in differentiated 3T3-L1 spheroids after exposure to compound 1 (hpa) and compound 2 (hfa) over 48 h. […] Statistical difference to the solvent control were analysed by One-Way ANOVA, followed by a Dunnett's multiple comparison post-test (***p-value<0.001, **p-value <0.01, *p-value <0.05). Quantification of free glycerol (lipolysis) on the medium where 3T3-L1 organoids were exposed to compound 1 (hpa) and compound 2 (hfa) over 48 h. […] Kolmogorov-Smirnov test was used to test normality of the data, followed by a Dunnett's multiple comparison post-test (***p-value <0.001, **p-value <0.01, *p-value <0.05).
(§2) In an embodiment, the bioactivity of hpa and hfa was confirmed in a further assay, using the murine pre-adipocyte cell line 3T3L1. […] In an embodiment, the activity in differentiated 3T3L1 spheroids was confirmed and analysis of lipolysis performed.

[2] = system: neutral lipids in zebrafish larvae; test: zebrafish Nile red fat metabolism assay (lipid reducing activity); format: in vivo, Zebrafish (Danio rerio); conditions: for IC50 / lipid reducing activity / Nile red staining: zebrafish larvae, exposure for 48 h; for IC50: Nile red; for fluorescence intensity of Nile red: all tested concentrations (156 ng/mL to 10 μg/mL)
Procedure: FIG. 1.A: Representative images of the zebrafish Nile red fat metabolism assay. Nile red fluorescence signal indicates neutral lipids around the yolk sac and stomach/intestine. […] A solvent control (0.1% dimethyl sulfoxide, DMSO) and positive control group (50 μM resveratrol, REV) was included.
FIG. 1.B: Quantification of lipid-reducing activity in the zebrafish Nile Red fat metabolism assay after exposure for 48 h. Values are expressed as mean fluorescence intensity (MFI) relative to the DMSO group and are derived from 6 to 8 individual larvae per treatment group. The data are represented as box-whisker plots (5 to 95 percentiles). Asterisks highlight significant differences compared to the DMSO group (****p<0.0001; ***p<0.001; **p<0.01; *p<0.05).
Zebrafish (Danio rerio) has become an attractive model organism for biomedical research. In the study of complex metabolic disorders like obesity, the use of more complex in vivo model systems as small whole animal models can bring significant advantages. For drug discovery, zebrafish assays can be used complementary to rodent assays, with easier handling, high predictive validity and cost-efficiency while compatible with high-throughput screening. […] The zebrafish Nile red fat metabolism assay analyses the capacity of compounds to reduce neutral lipids in zebrafish larvae in vivo.
(§3) 13^2(S)-hydroxy-pheophytin a (hpa) is a known compound, and belongs to the photosystem II complex of the chloroplast. The second is a novel compound, 13^2(S)-hydroxy-pheofarnesin a (hfa), which is structurally related to hpa.
In an embodiment, chlorophyll a and chlorophyll b were tested for lipid reducing activity on the zebrafish Nile red fat metabolism assay.

[3] = system: differentiated 3T3-L1 spheroids; test: viability (calcein AM) in differentiated 3T3-L1 spheroids; format: cell-based, murine; conditions: for toxicity by calcein AM staining: 3T3L1 spheroids; for reduction of viability of spheroids: not significant
Procedure: as §1, §2

zebrafish larvae = test: general toxicity on zebrafish larvae (death, malformations); format: in vivo, Zebrafish (Danio rerio); conditions: same concentration ranges as lipid reducing activity
Description: as §3

[4] = system: differentiated 3T3-L1 spheroids; test: lipolysis: free glycerol in the medium of 3T3-L1 spheroids; format: cell-based, murine; conditions: 3T3-L1 spheroids exposed over 48 h
Procedure: as §1, §2

cancer cells = conditions: Cheng et al., 2001; cited from earlier work

Molecule | lipid accumulation ([1]; 30 μg/mL) | lipid content of the spheroids [1] | IC50 [2] [µM] | lipid reducing activity / Nile red staining [2] | toxicity by calcein AM staining [3] | reduction in viability of spheroids ([3]; any concentration, 48 h) | general toxicity (death, malformations) (zebrafish larvae) | lipolytic activity / free glycerol content in the medium [4] | lipolytic activity / free glycerol content in the medium ([4]; listed as compound 2) | cytotoxicity on cancer cells (cancer cells) [µg/mL] | lipid accumulation ([1]; 7.5 μg/mL) | lipid accumulation ([1]; 15 μg/mL) | reduction of viability of spheroids ([3]; 15 μg/mL, 48 h) [%] | reduction of viability of spheroids ([3]; 30 μg/mL, 48 h) [%] | lipolytic activity / free glycerol content in the medium ([4]; listed as compound 1) | fluorescence intensity of Nile red [2]
13^2-(S)-hydroxy-pheofarnesin a [hfa] | significant reduction of lipid accumulation | reduced significantly the lipid content | 15.5 ± 1.3 | show a decrease in the Nile red staining | No toxicity was observed | did not cause any reduction in viability | No general toxicity was observed | did not alter lipolytic activities | No significant alterations | – | – | – | – | – | – | –
13^2-(S)-hydroxy-pheophytin a [hpa] | significant reduction of lipid accumulation | reduced significantly the lipid content | 8.9 ± 0.4 | show a decrease in the Nile red staining | No toxicity was observed | – | No general toxicity was observed | did not alter lipolytic activities | – | 8.8 to 22 | significant reduction of lipid accumulation | significant reduction of lipid accumulation | 20 | 20 | No significant alterations | –
C=Cc1c(C)c2cc3nc(c4c5[n-]c(cc6nc(cc1[n-]2)C(C)=C6CC)c(C)c5C(=O)[C@@H]4C(=O)OC)[C@@H](CCC(=O)OC/C=C(\C)CCC[C@H](C)CCC[C@H](C)CCCC(C)C)[C@@H]3C.[Mg+2] [chlorophyll a] | – | – | – | not present; also recorded: did not demonstrate any lipid reducing activity | – | – | – | – | – | – | – | – | – | – | – | did not reduce the fluorescence intensity
C=Cc1c(C)c2cc3nc(c4c5[n-]c(cc6nc(cc1[n-]2)C(C=O)=C6CC)c(C)c5C(=O)[C@@H]4C(=O)OC)[C@@H](CCC(=O)OC/C=C(\C)CCC[C@H](C)CCC[C@H](C)CCCC(C)C)[C@@H]3C.[Mg+2] [chlorophyll b] | – | – | – | not present; also recorded: did not demonstrate any lipid reducing activity | – | – | – | – | – | – | – | – | – | – | – | did not reduce the fluorescence intensity
